The target of the experiment is T1, angiotensin converting enzyme (ACE, EC 3.4.15.1) (Oryctolagus cuniculus, UniProt P12822).
T1 sequence (P12822 34-1310): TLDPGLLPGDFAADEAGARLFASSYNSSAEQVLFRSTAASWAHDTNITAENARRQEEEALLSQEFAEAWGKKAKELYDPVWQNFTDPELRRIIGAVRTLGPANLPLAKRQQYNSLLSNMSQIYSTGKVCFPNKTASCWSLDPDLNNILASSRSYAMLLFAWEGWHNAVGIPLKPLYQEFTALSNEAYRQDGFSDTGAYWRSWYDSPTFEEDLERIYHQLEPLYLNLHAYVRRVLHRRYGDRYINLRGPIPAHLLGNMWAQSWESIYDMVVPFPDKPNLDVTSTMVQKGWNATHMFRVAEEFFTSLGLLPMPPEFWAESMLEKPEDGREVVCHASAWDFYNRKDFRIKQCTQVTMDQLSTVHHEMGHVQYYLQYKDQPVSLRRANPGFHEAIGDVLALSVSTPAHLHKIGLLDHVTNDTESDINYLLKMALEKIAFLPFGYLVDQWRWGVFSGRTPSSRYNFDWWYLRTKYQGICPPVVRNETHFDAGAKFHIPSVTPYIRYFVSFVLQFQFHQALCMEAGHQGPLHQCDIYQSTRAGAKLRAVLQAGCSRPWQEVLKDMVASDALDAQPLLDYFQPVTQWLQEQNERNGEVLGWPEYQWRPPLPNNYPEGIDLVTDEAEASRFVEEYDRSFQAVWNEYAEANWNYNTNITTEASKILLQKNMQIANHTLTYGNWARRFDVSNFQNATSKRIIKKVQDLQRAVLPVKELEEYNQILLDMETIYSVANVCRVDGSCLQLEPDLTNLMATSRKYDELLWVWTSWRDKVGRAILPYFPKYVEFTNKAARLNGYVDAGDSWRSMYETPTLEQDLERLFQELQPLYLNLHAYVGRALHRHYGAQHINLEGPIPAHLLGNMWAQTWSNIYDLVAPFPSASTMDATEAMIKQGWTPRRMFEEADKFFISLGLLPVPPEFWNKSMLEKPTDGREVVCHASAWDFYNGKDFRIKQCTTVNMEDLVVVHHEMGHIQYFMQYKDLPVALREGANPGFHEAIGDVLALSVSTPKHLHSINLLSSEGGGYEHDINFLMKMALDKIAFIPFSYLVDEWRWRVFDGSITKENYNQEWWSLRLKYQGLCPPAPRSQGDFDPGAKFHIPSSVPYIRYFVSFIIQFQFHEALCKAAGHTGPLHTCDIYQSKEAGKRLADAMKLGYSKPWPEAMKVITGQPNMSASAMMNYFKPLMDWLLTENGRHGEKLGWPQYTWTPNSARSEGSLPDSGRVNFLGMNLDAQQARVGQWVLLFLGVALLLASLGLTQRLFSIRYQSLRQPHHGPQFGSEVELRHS
The class given is biochemical. Here is the method:
The inhibitory activity of the angiotensin converting enzyme (ACE) is measured in vitro according to the method of D. W. Cushman and H. S. Cheung (Spectrophotometric assay and properties of the angiotensin-converting enzyme of rabbit lung. Biochemical Pharmacology, 1971, 20: 1637-1648), later on modified by Y. K. Kim, S. Yoon, D. Y. Yu, B. Lönnerdal and B. H. Cheung (Novel angiotensin-I-converting enzyme inhibitory peptides derived from recombinant human αs1-casein expressed in Escherichia coli, Journal of Dairy Research 1999, 66, 431-439).
The substrate hippuryl histidyl leucine (HHL, Sigma Chemicals Co., St. Louis, Mo., USA) is dissolved in a 0.1 M borate buffer with 0.3 M NaCl pH 8.3 to obtain a final concentration of 5 mM. To 100 μl of substrate are added 40 μl of each of the samples whose ACEI activity it is wished to determine. The ACE enzyme (EC 3.4.15.1, Sigma) is added, dissolved in 50% glycerol and diluted 1/10 in bidistilled water at the moment of conducting the assay. The reaction is carried out at 37° C. for 30 minutes in a water-bath. The enzyme is deactivated by lowering the pH with 150 μl of 1 N HCl. The hippuric acid formed is extracted with 1000 μl of ethyl acetate. Following vortex stirring for 20 seconds, it is centrifuged at 4000 rpm for 10 minutes at room temperature. 750 μl of the organic phase are taken and evaporated by heating at 95° C. for 10 minutes. The hippuric acid residue is redissolved in 800 μl of bidistilled water and, following stirring for 20 seconds, the absorbency at 228 nm is measured in a Dur-70 spectrophotometer from Beckman Instruments, Inc., Fullerton, USA.
In order to calculate the percentage of ACEI activity, the following formula is used
The blank is used for correcting the background absorbency. This contains substrate, enzyme and 20 μl of bidistilled water in place of the sample, and the reaction is halted at zero time. The control implies a hundred percent of the enzymatic action on the substrate in the absence of inhibitors and contains 20 μl of water in place of the sample and is incubated the same time as the sample.
The results are presented as the IC50 (μM or μg/ml) or concentration at which 50% of the enzyme's activity is inhibited. The concentration of protein is determined by means of the bicinchonomic acid (BCA) assay (Pierce, Rockford, Ill., USA) using bovine seroalbumin as reference.

pIC50: −log10 of the molar value. Residues, ends and D or L forms follow the SMILES beside them.

The record followed here is patent publication US8227207B2, “Bioactive peptides derived from the proteins of egg white by means of enzymatic hydrolysis” (Consejo Superior de Investigaciones Cientifcas, priority 2004, dated 2012).

One may read the pIC50 as −log10 of the IC50, conventionally taken in molar units. As to `CC[C@H](C)[C@H](NC(=O)[C@@H]1CCCN1C(=O)[C@H](Cc1ccc(O)cc1)NC(=O)[C@H](CCCNC(=N)N)NC(=O)[C@H](CCC(=O)O)NC(=O)[C@H](CCC(=O)O)NC(=O)[C@H](C)NC(=O)[C@@H](N)Cc1ccc(O)cc1)C(=O)N[C@@H](CC(C)C)C(=O)O` [SEQ. ID. N^o 6] (H-YAEERYPIL-OH; N-terminus and C-terminus assumed), for the setting “peptides”, the “ACEI activity in vitro (in words)” value is reported as “potent ACEI activity”. Further, the pIC50 (read-out: ACEI activity IC50, synthetic peptides) was 5.33.
